Measurements reported in article PMC7662321, “Andrographolide and Its 14-Aryloxy Analogues Inhibit Zika and Dengue Virus Infection” (Molecules, 2020).

What was measured:
[1] = MTT cytotoxicity assay in A549 cells; format: cell-based; details: human, A549 cells (human lung carcinoma), 24 h post-treatment
Protocol: Cytotoxicity of each compound towards cells for four selected cell lines in the range of 1 to 500 µM was evaluated using the MTT (3-(4,5-dimethylthiazol-2-yl)-2,5-diphenyltetrazolium bromide) assay at 24 h post-treatment, in parallel with control and vehicle-treated cells (0.1% dimethyl sulfoxide (DMSO)). The 50% cytotoxic concentration (CC50) values calculated from the dose-response curve (Supplementary Figures S2–S5) are shown in Table 1. Overall, a range of cytotoxicities were seen from the four compounds across the […]. The most cytotoxic combination was ZAD-1 and BHK-21 cells, while the least cytotoxic combination was andrographolide and BHK-21 cells (Table 1).
A549 cells were cultured in ninety-six-well tissue culture plates under standard conditions until the cells reached 90% confluence. The cell culture medium was removed and then cells were incubated with various concentrations of andrographolide (1–100 μM) diluted in complete medium with FBS prior to being cultured for 24 h under standard conditions before analysis using either the Vybrant MTT Cell proliferation assay kit (V13154, Invitrogen) or the alamarBlue (Thermo Fischer Scientific, Waltham, MA, USA) assay kit according to the manufacturers recommendations. Values were determined from 8 (MTT assay) or 3 (alamarBlue) independent replicates. Negative controls (only media and media with 0.1% DMSO) and positive controls (5% DMSO) were included. To determine cell number, cell cultures were trypsinized by the addition of 0.25% Trypsin/0.1% ethylelediaminetetraacetic acid (EDTA) for 3 min and then cell suspensions were diluted with 0.4% trypan blue solution. Cells were counted using a hemocytometer. Cell morphology was additionally observed under an inverted microscope after 24 h treatment with various concentrations of each compound.
Figu re S4. Cytotoxicity of ZAD -1 (A), ZA D-2 (B), ZA D-3 (C), and andro grapholide (D) to A549 (human lung carcinoma) cells. A549 cells were incubated with various concentrations of each compound for 24 hrs followed by MTT cell viability assay. The experiment was undertaken independently in 4 replicates.
DMSO at the same concentrations was used as a control. 10% ethanol, PBS, and milli- Q water were used as a positive control of cell death. The bars show mean ± SD. […]

[2] = tested on: ZIKV; test: Percentage of ZIKV infection of A549 cells by flow cytometry; format: cell-based, Zika virus; details: A549, MOI 5, 10 and 25 µM, 24 h, vs vehicle
Protocol: To confirm the effects of andrographolide and the andrographolide analogues on ZIKV infection, A549 cells were infected with ZIKV at MOI of 5 for 2 h, and subsequently treated with the compounds at concentrations of 10 and 25 μM or with vehicle for 24 h. The cells were harvested for determination of the percentage of infection by flow cytometry, while the supernatants were collected for determination of viral titer by standard plaque assay.
HEK293T/17 or A549 cells were cultured in six-well plates under standard conditions until the cells reached 80% confluence. HEK293T/17 cells were infected with DENV 2, while A549 cells were infected with ZIKV Thai strain at MOI 5 for 2 h at 37 °C and 5% CO2 in culture medium without FBS. Mock infection was undertaken in parallel. After the infection period, the medium was removed and replaced with complete medium (including FBS) containing 0.1% DMSO (no treatment control) or the appropriate concentration of each compound and cells were again incubated under standard conditions. At 24 h post-treatment, cells were harvested for determination of effects of compounds on percentage of infection and supernatant was collected for determination of viral productivity. All experiments were undertaken independently in triplicate with duplicate plaque assay.
Mock- or viral-infected cells (with or without compound treatment) were harvested at an appropriate time point then incubated with 10% normal goat serum (NGS; Gibco Invitrogen) in PBS-immunofluorescence assay (IFA) buffer on ice for 30 min. The cells were washed with 800 µL of 1% BSA/PBS-IFA and fixed with 200 µL of 4% paraformaldehyde in PBS-IFA at room temperature in the dark for 20 min. After washing with 800 µL of 1% BSA/PBS-IFA, cells were permeabilized with 200 µL of 0.2% Triton X-100 in PBS-IFA for 10 min at room temperature in the dark. Subsequently, the cells were washed with 800 µL of 1% BSA/PBS-IFA followed by overnight incubation with 50 µL of primary antibody (1:150 dilution of pan-specific anti-dengue virus E protein antibody HB114 for DENV and 1:2 dilution of anti-flavivirus antibody HB112 for ZIKV). After washing twice with 800 µL of 1% BSA/PBS-IFA, the cells were incubated with 50 µL of a goat anti-mouse IgG conjugated with fluorescein isothiocyanate (FITC; KPL, Guilford, UK) diluted 1:40 with 1% BSA/PBS-IFA at room temperature in the dark for 1 h. The cells were washed twice with 800 µL of 1% BSA/PBS-IFA and resuspended in 100 µL of PBS-IFA. The fluorescence signal was analyzed by flow cytometry on a BD FACalibur cytometer (Becton Dickinson, BD Biosciences, San Jose, CA, USA) using CellQuest™ software (Version 6). All experiments were undertaken independently in triplicate. All raw flow cytometry data plots are provided in Supplementary Figures S13–S19.

[3] = tested on: HSPA1A; test: 2D-PAGE proteomic analysis of treated A549 cells, HSPA1A spot; format: cell-based, human; details: A549, 25 µM, 24 h
Protocol: (§1) A549 cells were therefore treated with either vehicle (0.025% DMSO), or with 25 μM of andrographolide or ZAD-1, and at 24 h post-treatment, proteins were prepared and subjected to two-dimension polyacrylamide gel electrophoresis (2D-PAGE). The experiment was undertaken independently in triplicate and representative gels are shown Figure 5, with all replicates being shown in Supplementary Figure S12. […] All of these protein spots were cut from the gels and then subjected to in-gel tryptic digestion followed by mass spectrometry. MASCOT (Matrix Science Inc., Boston, MA, USA) search of the resultant masses identified 4 proteins (Table 3), namely heat shock protein 70 kDa 1A (HSPA1A), phosphoglycerate kinase 1 (PGK1), transketolase (TKT) and nuclear transport protein of GTP-binding nuclear protein Ran (Ran).
(§2) 2D-PAGE and mass spectroscopic identification of differentially expressed spots was undertaken essentially as previously described. […] Image data were analyzed using Image Master™ 2D Platinum software version 7.0 (GenBio, Geneva, Switzerland). Each spot was evaluated on intensity, volume and area. […] After tryptic in-gel digestion, peptide masses were determined by LC-MS/MS using SYNAPT high definition MS (HDMS) (Waters Corp., Milford, MA, USA).

[4] = tested on: TKT; test: 2D-PAGE proteomic analysis of treated A549 cells, TKT spot; format: cell-based, human; details: A549, 25 µM, 24 h
Protocol: as §1, §2

SMILES | CC50 at 24 h [1] [µM] | number of ZIKV-infected cells (percentage of infection) [2] | Intensity Level, spot 1 HSPA1A [3] | Intensity Level, spot 2 TKT [4]
C=C1CC[C@@H]2[C@]3(C)COC(C)(C)O[C@@H]3CC[C@@]2(C)[C@@H]1C/C=C1/C(=O)OC[C@@H]1Oc1c(Cl)cc(Cl)c2ccc(C)nc12 [ZAD-1] | 273 ± 22 | significantly reduced | 1279.25 | 523.514
C=C1CC[C@@H]2[C@](C)(CO)[C@H](O)CC[C@@]2(C)[C@@H]1C/C=C1/C(=O)OC[C@H]1O [Andrographolide] | 211 ± 32 | significantly reduced | 2410.2 | 1452.51
